Data: patent US20250127863A1, “ANTIMICROBIAL PEPTIDE FOR ONYCHOMYCOSIS” (CBMR SCIENTIFIC NANOSCIENCE B.V., priority 2019, published 2025)
No end group written: not given here.

Assays:
onychomycosis = test: Application of the composition by human subjects (Example 1); format: in vivo
Procedure: The concentration of the antimicrobial peptide in the composition used for the treatment of onychomycosis by human subjects, was 30 mg/l ([…]).
The composition used comprises the antimicrobial peptide hLF1-11 (GRRRRSVQWCA) [SEQ ID NO: 3] and is a clear colorless liquid in a (glass) bottle with a dropper to facilitate application to the nail. […] The antimicrobial peptide is completely biodegradable.
The composition is applied twice a day to the affected nail and cuticle, preferably in the morning and in the evening. Hold the tip of the dropper above the nail. Avoid direct contact between the dropper providing the solution and the infected nail to keep liquid clean. Squeeze the tube gently and drop the drop onto the cuticle/proximal fold. It is preferred to cover the whole nail with a thin layer of the solution. In particular cases it is important that the solution is also applied under the edge of the affected nail (on the distal nail bed) e.g. with a cotton swab, in particular when the infection started from there. Allow the nail to dry for a few minutes after application. The treatment duration varies depending on the severity of the infection; in many cases 3-6 months of treatment may be necessary. For optimal results, continue the treatment until a new healthy nail has fully grown. […] Reference is made to FIG. 1.

C. auris = test: MIC90 growth inhibition; format: cell-based, Candida auris; conditions: RPMI 1640 one-fourth strength
Procedure: (§1) The minimum inhibitory concentration (MIC) value is defined as the lowest sample concentration that inhibited growth. In the Examples, the MIC90 value is presented, which MIC90 values are determined according to established methods known to the person with the skills in the relevant art. Experiments; 1×10E5 CFU of various strains/ml were incubated for 24-48 h at 37° C. in 4× diluted medium of RPMI 1640 with the indicated concentrations of antimicrobial peptide hLF(1-11) [SEQ ID NO: 3]. As controls various strains cells were incubated for 24-48 h at 37° C. with no agent (antimicrobial peptide), and subsequently, growth of the microbial organism (e.g. yeast, bacterium) was monitored by using spectrophotometry with a spectrophotometer at 620 nm. […] ND=Not done. Representative single assay data are listed rather than a range, for clarity reasons and for ease of comparison of peptide efficacy. The MIC was calculated as the lowest antibiotic (antimicrobial peptide) concentration at which growth of the assessed yeast or bacterium (microbe) was inhibited (inhibitory concentration IC90).

C. glabrata (LUMC) = test: MIC90 growth inhibition; format: cell-based, Candida glabrata; conditions: RPMI 1640 one-fourth strength
Procedure: as §1

C. glabrata CBS-138 = test: MIC90 growth inhibition; format: cell-based, Candida glabrata; conditions: RPMI 1640 one-fourth strength
Procedure: as §1

C. glabrata CMC-1933 = test: MIC90 growth inhibition; format: cell-based, Candida glabrata; conditions: RPMI 1640 one-fourth strength
Procedure: as §1

C. glabrata spp. = test: MIC90 growth inhibition; format: cell-based, Candida glabrata; conditions: RPMI 1640 one-fourth strength
Procedure: as §1

C. haemulonii = test: MIC90 growth inhibition; format: cell-based, Candida haemulonii; conditions: RPMI 1640 one-fourth strength
Procedure: as §1

C. kefyr = test: MIC90 growth inhibition; format: cell-based, Candida kefyr; conditions: RPMI 1640 one-fourth strength
Procedure: as §1

C. tropicalis (LUMC) = test: MIC90 growth inhibition; format: cell-based, Candida tropicalis; conditions: RPMI 1640 one-fourth strength
Procedure: as §1

C. tropicalis CBS-94 = test: MIC90 growth inhibition; format: cell-based, Candida tropicalis; conditions: RPMI 1640 one-fourth strength
Procedure: as §1

C. tropicalis CMC-2041 = test: MIC90 growth inhibition; format: cell-based, Candida tropicalis; conditions: RPMI 1640 one-fourth strength
Procedure: as §1

C. tropicalis spp. = test: MIC90 growth inhibition; format: cell-based, Candida tropicalis; conditions: RPMI 1640 one-fourth strength
Procedure: as §1

Aspergillus ungius = test: MIC90 growth inhibition; format: cell-based; conditions: RPMI 1640 one-fourth strength
Procedure: as §1

Botrytis cinerea = test: MIC90 growth inhibition; format: cell-based; conditions: RPMI 1640 one-fourth strength
Procedure: as §1

Cryptococcus curvatus = test: MIC90 growth inhibition; format: cell-based; conditions: RPMI 1640 one-fourth strength
Procedure: as §1

Fusarium moniliforme = test: MIC90 growth inhibition; format: cell-based; conditions: RPMI 1640 one-fourth strength
Procedure: as §1

[1] = tested on: Malassezia furfur CBS 14141; test: MIC90 growth inhibition; format: cell-based; conditions: RPMI 1640 one-fourth strength
Procedure: as §1

[2] = tested on: Malassezia furfur CBS 7019; test: MIC90 growth inhibition; format: cell-based; conditions: RPMI 1640 one-fourth strength
Procedure: as §1

Malassezia globosa = test: MIC90 growth inhibition; format: cell-based; conditions: RPMI 1640 one-fourth strength
Procedure: as §1

Moraxella catarrhalis = test: MIC90 growth inhibition; format: cell-based; conditions: RPMI 1640 one-fourth strength
Procedure: as §1

Nannizia gypsea = test: MIC90 growth inhibition; format: cell-based; conditions: RPMI 1640 one-fourth strength
Procedure: as §1

Proteus spp = test: MIC90 growth inhibition; format: cell-based; conditions: RPMI 1640 one-fourth strength
Procedure: as §1

[3] = tested on: Saccharomyces cerivisiae ATCC 2601; test: MIC90 growth inhibition; format: cell-based; conditions: RPMI 1640 one-fourth strength
Procedure: as §1

Streptococcus mitis = test: MIC90 growth inhibition; format: cell-based; conditions: RPMI 1640 one-fourth strength
Procedure: as §1

[4] = tested on: Trichophyton mentagrophytes; test: MIC90 growth inhibition; format: cell-based; conditions: RPMI 1640 one-fourth strength
Procedure: as §1

Rhizoctonia solani = test: IC50 growth inhibition; format: cell-based
Candida albicans spp = test: MIC90 growth inhibition, organisms related to onychomycosis; format: cell-based; conditions: RPMI 1640 one-fourth strength
Procedure: as §1

Hypercrealis spp = test: as above; format: cell-based; conditions: RPMI 1640 one-fourth strength
Procedure: as §1

Malassezia spp = test: as above; format: cell-based; conditions: RPMI 1640 one-fourth strength
Procedure: as §1

Microsporum spp = test: as above; format: cell-based; conditions: RPMI 1640 one-fourth strength
Procedure: as §1

[5] = tested on: Scopulariopsis breyicaulis; test: as above; format: cell-based; conditions: RPMI 1640 one-fourth strength
Procedure: as §1

Trichophyton spp = test: as above; format: cell-based; conditions: Trichophyton spp (Table 2); RPMI 1640 one-fourth strength
Procedure: as §1

S. epidermidis Type 2163 = test: MIC90 growth inhibition; format: cell-based, Staphylococcus epidermidis; conditions: RPMI 1640 one-fourth strength
Procedure: as §1

GRRRRSVQWCA [hLF1-11, Gly Arg Arg Arg Arg Ser Val Gln Trp Cys Ala]
recurrent infection in treated patients (onychomycosis; after 4 months or even longer): do not show signs of recurrent infection
time to first visible improvements (onychomycosis; twice daily application, 30 mg/l composition): two to four
Inhibitory concentration MIC (MIC90) (C. auris): MIC = 12.5-25 μg/ml
Inhibitory concentration MIC (MIC90) (C. glabrata (LUMC)): MIC = 25 μg/mL
Inhibitory concentration MIC (MIC90) (C. glabrata CBS-138): MIC = 25 μg/mL
Inhibitory concentration MIC (MIC90) (C. glabrata CMC-1933): MIC = 25 μg/mL
Inhibitory concentration MIC (MIC90) (C. glabrata spp.): MIC = 25 μg/mL
Inhibitory concentration MIC (MIC90) (C. haemulonii): MIC = 25 μg/mL
Inhibitory concentration MIC (MIC90) (C. kefyr): MIC = 2.5-12.5 μg/ml
Inhibitory concentration MIC (MIC90) (C. tropicalis (LUMC)): MIC = 25 μg/mL
Inhibitory concentration MIC (MIC90) (C. tropicalis (LUMC); second listing): MIC = 25 μg/ml
Inhibitory concentration MIC (MIC90) (C. tropicalis CBS-94; C. tropicalis CBS-94, second listing): MIC = 50 μg/ml
Inhibitory concentration MIC (MIC90) (C. tropicalis CBS-94): MIC = 50 μg/mL
Inhibitory concentration MIC (MIC90) (C. tropicalis CMC-2041; C. tropicalis CMC-2041, second listing): MIC = 50 μg/ml
Inhibitory concentration MIC (MIC90) (C. tropicalis CMC-2041): MIC = 50 μg/mL
Inhibitory concentration MIC (MIC90) (C. tropicalis spp.): MIC = 12.5-100 μg/mL
Inhibitory concentration MIC (MIC90) (Aspergillus ungius): MIC = 3.1-25 μg/ml
Inhibitory concentration MIC (MIC90) (Botrytis cinerea): MIC = 16 μM
Inhibitory concentration MIC (MIC90) (Cryptococcus curvatus): MIC = 9 μg/ml
Inhibitory concentration MIC (MIC90) (Fusarium moniliforme): MIC = 2.5-5 μg/ml
Inhibitory concentration MIC (MIC90) [1]: MIC = 12.5-50 μg/mL
Inhibitory concentration MIC (MIC90) [2]: MIC = 12.5-50 μg/mL
Inhibitory concentration MIC (MIC90) (Malassezia globosa): MIC = 12.5-50 μg/mL
Inhibitory concentration MIC (MIC90) (Moraxella catarrhalis): MIC = 2 μg/ml
Inhibitory concentration MIC (MIC90) (Nannizia gypsea): MIC = 30 μg/ml
Inhibitory concentration MIC (MIC90) (Proteus spp): MIC = 6.3 μg/ml
Inhibitory concentration MIC (MIC90) [3]: MIC = 25 μg/mL
Inhibitory concentration MIC (MIC90) (Streptococcus mitis): MIC = 3.1 μg/ml
Inhibitory concentration MIC (MIC90) [4]: MIC = 6.3-45 μg/ml
Inhibitory concentration IC50 (Rhizoctonia solani): IC50 = 121 μg/mL
Inhibitory concentration MIC (MIC90) (Candida albicans spp): MIC = 25-50 μg/mL
Inhibitory concentration MIC (MIC90) (Hypercrealis spp): MIC = 25-50 μg/mL
Inhibitory concentration MIC (MIC90) (Malassezia spp): MIC = 12.5-50 μg/mL
Inhibitory concentration MIC (MIC90) (Microsporum spp): MIC = 25-50 μg/mL
Inhibitory concentration MIC (MIC90) [5]: MIC = 25-50 μg/mL
Inhibitory concentration MIC (MIC90) (Trichophyton spp): MIC = 6.3-50 μg/ml
Inhibitory concentration MIC (MIC90) (S. epidermidis Type 2163): MIC = 3.1 μg/ml
